Experimental data from patent US7704995B2 (Exelixis, Inc., priority 2003, dated 2010).
Where two headings read alike, the source gives them in different places.

Biological target: T1, Chk1 (Homo sapiens, UniProt O14757)
T1 construct: purchased Upstate Biotechnology
T1 sequence (O14757 1-476): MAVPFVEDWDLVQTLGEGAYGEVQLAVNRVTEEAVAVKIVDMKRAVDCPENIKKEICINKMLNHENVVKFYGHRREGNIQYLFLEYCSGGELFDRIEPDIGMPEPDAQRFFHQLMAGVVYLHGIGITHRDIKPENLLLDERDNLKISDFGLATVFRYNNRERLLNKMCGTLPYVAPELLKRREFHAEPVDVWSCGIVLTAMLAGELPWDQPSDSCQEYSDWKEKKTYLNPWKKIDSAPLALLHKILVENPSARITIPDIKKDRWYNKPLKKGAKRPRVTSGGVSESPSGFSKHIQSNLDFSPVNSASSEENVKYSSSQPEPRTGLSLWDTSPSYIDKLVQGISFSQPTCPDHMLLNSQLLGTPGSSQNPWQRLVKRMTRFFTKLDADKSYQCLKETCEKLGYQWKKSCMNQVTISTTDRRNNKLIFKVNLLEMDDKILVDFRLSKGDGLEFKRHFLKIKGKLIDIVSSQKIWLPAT
Experiment: Chk1 kinase assay: incorporation of γ-33P ATP into immobilized myelin basic protein
Format: biochemical
Settings: read-out: Chk1 IC50
Outline: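 Plates coated with MBP, then kinase reactions in Hepes pH 7.6 buffer with 10 mM MgCl2 and 1% DMSO were started by adding unlabeled plus γ-33P ATP (10 μM for Chk1 at 10 nM enzyme; 30 μM for Chk2 at 20 nM enzyme). After 1 h at room temperature, plates were washed and counted.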

[1] = Table 11, Chk1 only, class symbols A-D

SMILES | IC50 | IC50 (Table 11, Chk1 only) | also measured
CNC(=O)c1nc(-c2cccc(C(=O)NCc3cccc(OC(F)(F)F)c3)c2)cnc1N [Example 218, 3-amino-N-methyl-6-(3-{[({3-[(trifluoromethyl)oxy]phenyl}methyl)amino]carbonyl}phenyl)pyrazine-2-carboxamide] | 1000 to 10000 nM |  | 
Nc1ncc(-c2cccc(C(=O)NCc3ccccc3Cl)c2)nc1C(=O)N[C@H]1CCCNC1 [Example 881, 3-amino-6-[3-({[(2-chlorophenyl)methyl]amino}carbonyl)phenyl]-N-[(3S)-piperidin-3-yl]pyrazine-2-carboxamide] |  |  | IC50 [1]: < 50 nM
CNC(=O)c1cc(-c2cccc(CO)c2)cnc1N [Example 35] | 50 to 1000 nM |  | 
Nc1ncc(-c2cccc(C(=O)NCc3ccccc3)c2)nc1-c1nc(-c2ccccc2)n(-c2ccccn2)n1 [Example 792, 3-[5-amino-6-(5-phenyl-1-pyridin-2-yl-1H-1,2,4-triazol-3-yl)pyrazin-2-yl]-N-(phenylmethyl)benzamide] |  | 1000 to 10000 nM | 
C/C(=N\Nc1ccccn1)c1nc(-c2cccc(C(=O)NCc3ccccc3)c2)cnc1N [Example 632, 3-{5-amino-6-[(1E)-N-pyridin-2-ylethanehydrazonoyl]pyrazin-2-yl}-N-(phenylmethyl)benzamide] |  | ≥ 10000 nM | 
CNC(=O)c1nc(-c2cccc(C(=O)N[C@@H]3CCN(Cc4ccc(Cl)cc4)C3)c2)cnc1NCc1ccc(Cl)cc1 [Example 359, 3-{[(4-chlorophenyl)methyl]amino}-6-{3-[({(3R)-1-[(4-chlorophenyl)methyl]pyrrolidin-3-yl}amino)carbonyl]phenyl}-N-methylpyrazine-2-carboxamide] | 50 to 1000 nM |  | 
Nc1ncc(-c2cccc(C(=O)NCc3ccccc3)c2)nc1CN1CCOCC1 [Example 694, 3-[5-amino-6-(morpholin-4-ylmethyl)pyrazin-2-yl]-N-(phenylmethyl)benzamide] |  | ≥ 10000 nM | 
CC(C)(C)OC(=O)N1CCC[C@@H](NC(=O)c2nc(-c3cccc(C(=O)N[C@@H]4c5ccccc5C[C@@H]4O)c3)cnc2N)C1 [Example 795, 1,1-dimethylethyl (3R)-3-[({3-amino-6-[3-({[(1R,2S)-2-hydroxy-2,3-dihydro-1H-inden-1-yl]amino}carbonyl)phenyl]pyrazin-2-yl}carbonyl)amino]piperidine-1-carboxylate] |  | ≥ 10000 nM | 
CNC(=O)c1nc(-c2cccc(C(=O)NCc3ccncc3)c2)cnc1N [Example 123, 3-amino-N-methyl-6-(3-{[(pyridin-4-ylmethyl)amino]carbonyl}phenyl)pyrazine-2-carboxamide] | 50 to 1000 nM |  | 
CNC(=O)c1nc(-c2cccc(C(=O)NCc3ccccc3Cl)c2)cnc1N [Example 128, 3-amino-6-[3-({[(2-chlorophenyl)methyl]amino}carbonyl)phenyl]-N-methylpyrazine-2-carboxamide] | 50 to 1000 nM |  | 
CNC(=O)c1nc(-c2ccncc2)cnc1N [Example 269, 3-amino-N-methyl-6-pyridin-4-ylpyrazine-2-carboxamide] | 1000 to 10000 nM |  | 
Nc1ncc(-c2cccc(C(=O)NCc3c(F)ccc(Cl)c3F)c2)nc1C(=O)N[C@H]1CCCCNC1 [Example 1019, 3-amino-N-[(3S)-azepan-3-yl]-6-[3-({[(3-chloro-2,6-difluorophenyl)methyl]amino}carbonyl)phenyl]pyrazine-2-carboxamide] |  |  | IC50 [1]: < 50 nM
CNC(=O)c1nc(-c2ccc(C(=O)OCc3ccccc3)cc2)cnc1N [Example 149, phenylmethyl 4-{5-amino-6-[(methylamino)carbonyl]pyrazin-2-yl}benzoate] | ≥ 10000 nM |  | 
CC(C)(C)OC(=O)N1CCC(N2CC[C@H](NC(=O)c3nc(-c4cccc(C(=O)NCc5ccccc5)c4)cnc3N)C2)CC1 [Example 686, 1,1-dimethylethyl 4-[(3S)-3-({[3-amino-6-(3-{[(phenylmethyl)amino]carbonyl}phenyl)pyrazin-2-yl]carbonyl}amino)pyrrolidin-1-yl]piperidine-1-carboxylate] |  | 1000 to 10000 nM | 
Nc1ncc(-c2cccc(CNS(=O)(=O)c3ccc4c(c3)CCO4)c2)nc1C(=O)N[C@H]1CCCNC1 [Example 905, 3-amino-6-(3-{[(2,3-dihydro-1-benzofuran-5-ylsulfonyl)amino]methyl}phenyl)-N-[(3S)-piperidin-3-yl]pyrazine-2-carboxamide] |  |  | IC50 [1]: < 50 nM
C/C(=N\N(C)c1ccccc1)c1nc(-c2cccc(C(=O)NCc3ccccc3)c2)cnc1N [Example 604, 3-{5-amino-6-[(1E)-N-methyl-N-phenylethanehydrazonoyl]pyrazin-2-yl}-N-(phenylmethyl)benzamide] |  | 1000 to 10000 nM | 
CSc1ccc(CC(=O)Nc2cccc(-c3cnc(N)c(C(=O)N[C@H]4CCCNC4)n3)c2)cc1 [Example 889, 3-amino-6-[3-({[4-(methylthio)phenyl]acetyl}amino)phenyl]-N-[(3S)-piperidin-3-yl]pyrazine-2-carboxamide] |  |  | IC50 [1]: < 50 nM
Nc1ncc(-c2cccc(C(=O)NCc3ccc(F)cc3C(F)(F)F)c2)nc1C(=O)N[C@H]1CCCNC1 [Example 873, 3-amino-6-{3-[({[4-fluoro-2-(trifluoromethyl)phenyl]methyl}amino)carbonyl]phenyl}-N-[(3S)-piperidin-3-yl]pyrazine-2-carboxamide] |  |  | IC50 [1]: < 50 nM
CNC(=O)c1nc(-c2cccc(C(=O)NCc3ccccc3N3CCOCC3)c2)cnc1N [Example 341, 3-amino-N-methyl-6-[3-({[(2-morpholin-4-ylphenyl)methyl]amino}carbonyl)phenyl]pyrazine-2-carboxamide] | 50 to 1000 nM |  | 
CNC(=O)c1nc(-c2cccc(CNCc3ccc(S(C)(=O)=O)cc3)c2)cnc1N [Example 392, 3-amino-N-methyl-6-{3-[({[4-(methylsulfonyl)phenyl]methyl}amino)methyl]phenyl}pyrazine-2-carboxamide] | 50 to 1000 nM |  | 
CNC(=O)c1nc(-c2ccc(CO)cc2)cnc1N [Example 58, 3-amino-6-[4-(hydroxymethyl)phenyl]-N-methylpyrazine-2-carboxamide] | 1000 to 10000 nM |  | 
CNC(=O)c1nc(-c2cccc(C(=O)NCc3ccc(Cl)cc3C)c2)cnc1N [Example 245, 3-amino-6-[3-({[(4-chloro-2-methylphenyl)methyl]amino}carbonyl)phenyl]-N-methylpyrazine-2-carboxamide] | 50 to 1000 nM |  | 
CNC(=O)c1nc(-c2cccc(C(=O)NCc3ccc(-c4csnn4)cc3)c2)cnc1N [Example 376, 3-amino-N-methyl-6-{3-[({[4-(1,2,3-thiadiazol-4-yl)phenyl]methyl}amino)carbonyl]phenyl}pyrazine-2-carboxamide] | < 50 nM |  | 

Second part, led by results:

IC50 | IC50 (Table 11, Chk1 only) | SMILES | also measured
 | 1000 to 10000 nM | Cc1nccc(-c2nc(-c3cccc(C(=O)NCc4ccccc4)c3)cnc2N)n1 [Example 656, 3-[5-amino-6-(2-methylpyrimidin-4-yl)pyrazin-2-yl]-N-(phenylmethyl)benzamide] | 
 | 50 to 1000 nM | CNC(=O)c1nc(-c2cccc(CNC3Cc4c(F)cccc4C3O)c2)cnc1N (centres unmarked) [Example 467, 3-amino-6-(3-{[(4-fluoro-1-hydroxy-2,3-dihydro-1H-inden-2-yl)amino]methyl}phenyl)-N-methylpyrazine-2-carboxamide] | 
 | 50 to 1000 nM | CCNC(=O)c1nc(-c2cccc(CNC3CCc4cc(F)cc(F)c43)c2)cnc1N (centres unmarked) [Example 489, 3-amino-6-(3-{[(5,7-difluoro-2,3-dihydro-1H-inden-1-yl)amino]methyl}phenyl)-N-ethylpyrazine-2-carboxamide] | 
 | 50 to 1000 nM | CNC(=O)c1nc(-c2cccc(CNC3CCc4cc(OCCN5CCOCC5)ccc43)c2)cnc1N (centres unmarked) [Example 505, 3-amino-N-methyl-6-{3-[({5-[(2-morpholin-4-ylethyl)oxy]-2,3-dihydro-1H-inden-1-yl}amino)methyl]phenyl}pyrazine-2-carboxamide] | 
 | < 50 nM | CNC(=O)c1nc(-c2cccc(CNC3CCc4cc(-c5cc(C)cs5)ccc43)c2)cnc1N (centres unmarked) [Example 496, 3-amino-N-methyl-6-[3-({[5-(4-methyl-2-thienyl)-2,3-dihydro-1H-inden-1-yl]amino}methyl)phenyl]pyrazine-2-carboxamide] | 
 | 50 to 1000 nM | CNC(=O)c1nc(-c2cccc(CNC3CC(=O)c4ccccc43)c2)cnc1N (centres unmarked) [Example 471, 3-amino-N-methyl-6-(3-{[(3-oxo-2,3-dihydro-1H-inden-1-yl)amino]methyl}phenyl)pyrazine-2-carboxamide] | 
 | < 50 nM | Nc1ncc(-c2cccc(CN[C@H]3CCc4ccccc43)c2)nc1-c1nc([C@@H]2CCCNC2)n[nH]1 [Example 705, 5-(3-{[(1S)-2,3-dihydro-1H-inden-1-ylamino]methyl}phenyl)-3-{3-[(3R)-piperidin-3-yl]-1H-1,2,4-triazol-5-yl}pyrazin-2-amine] | 
 | 50 to 1000 nM | CCN1CCCC(c2nnc(-c3nc(-c4cccc(CN[C@H]5CCc6ccccc65)c4)cnc3N)[nH]2)C1 (stereo partly drawn) [Example 733, 5-(3-{[(1S)-2,3-dihydro-1H-inden-1-ylamino]methyl}phenyl)-3-[5-(1-ethylpiperidin-3-yl)-4H-1,2,4-triazol-3-yl]pyrazin-2-amine] | 
 | 50 to 1000 nM | CNC(=O)c1nc(-c2cccc(CN[C@@H]3CCc4cc(Br)ccc4C3)c2)cnc1N [Example 463, 3-amino-6-[3-({[(2R)-6-bromo-1,2,3,4-tetrahydronaphthalen-2-yl]amino}methyl)phenyl]-N-methylpyrazine-2-carboxamide] | 
